In PubChem BioAssay (NCI):
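Tested at 5 concentrations; 48 h exposure; 96-well plates; endpoints linearly interpolated, else capped at highest concentration. At the GI50, growth is halved. At the TGI there is no net growth.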

Columns and labels:
Experiment in all cases: inhibition of tumour cell growth, NCI panel, 48 h; in the data active = GI50 below about 0.43 µM; inactive = the rest
786-0 renal = system: 786-0 renal
A498 renal = system: A498 renal
A549 NSCLC = system: A549 NSCLC
ACHN renal = system: ACHN renal
BT-549 breast = system: BT-549 breast
CAKI-1 renal = system: CAKI-1 renal
CCRF-CEM leukemia = system: CCRF-CEM leukemia
COLO 205 colon = system: COLO 205 colon
DU-145 prostate = system: DU-145 prostate
EKVX NSCLC = system: EKVX NSCLC
HCC-2998 colon = system: HCC-2998 colon
HCT-116 colon = system: HCT-116 colon
HCT-15 colon = system: HCT-15 colon
HL-60(TB) leukemia = system: HL-60(TB) leukemia
HOP-62 NSCLC = system: HOP-62 NSCLC
HOP-92 NSCLC = system: HOP-92 NSCLC
HS 578T breast = system: HS 578T breast
HT29 colon = system: HT29 colon
IGROV1 ovarian = system: IGROV1 ovarian
K-562 leukemia = system: K-562 leukemia
KM12 colon = system: KM12 colon
LOX IMVI melanoma = system: LOX IMVI melanoma
M14 melanoma = system: M14 melanoma
MALME-3M melanoma = system: MALME-3M melanoma
MCF7 breast = system: MCF7 breast
MDA-MB-231 breast = system: MDA-MB-231 breast
MDA-MB-435 = system: MDA-MB-435
MOLT-4 leukemia = system: MOLT-4 leukemia
NCI-H226 lung = system: NCI-H226 lung
NCI-H23 lung = system: NCI-H23 lung
NCI-H460 lung = system: NCI-H460 lung
NCI-H522 lung = system: NCI-H522 lung
NCI/ADR-RES ovarian = system: NCI/ADR-RES ovarian
OVCAR-3 ovarian = system: OVCAR-3 ovarian
OVCAR-4 ovarian = system: OVCAR-4 ovarian
OVCAR-5 ovarian = system: OVCAR-5 ovarian
OVCAR-8 ovarian = system: OVCAR-8 ovarian
PC-3 prostate = system: PC-3 prostate
RPMI-8226 leukemia = system: RPMI-8226 leukemia
RXF 393 renal = system: RXF 393 renal
SF-268 CNS = system: SF-268 CNS
SF-295 CNS = system: SF-295 CNS
SF-539 CNS = system: SF-539 CNS
SK-MEL-2 melanoma = system: SK-MEL-2 melanoma
SK-MEL-28 melanoma = system: SK-MEL-28 melanoma
SK-MEL-5 melanoma = system: SK-MEL-5 melanoma
SK-OV-3 ovarian = system: SK-OV-3 ovarian
SN12C renal = system: SN12C renal
SNB-19 CNS = system: SNB-19 CNS
SNB-75 CNS = system: SNB-75 CNS
SR leukemia = system: SR leukemia
SW-620 colon = system: SW-620 colon
T-47D breast = system: T-47D breast
TK-10 renal = system: TK-10 renal
U251 CNS = system: U251 CNS
UACC-257 melanoma = system: UACC-257 melanoma
UACC-62 melanoma = system: UACC-62 melanoma
UO-31 renal = system: UO-31 renal
MDA-N = system: MDA-N

CC(OC(=O)N(N(CCCl)S(C)(=O)=O)S(C)(=O)=O)c1ccc([N+](=O)[O-])cc1 (stereo not given)
> 92 µM: TGI (HS 578T breast)
79.3 µM: TGI (NCI-H226 lung)
inactive: GI50 (786-0 renal) 44.7 µM | GI50 (A498 renal) 1700 nM | GI50 (A549 NSCLC) > 58.3 µM | GI50 (ACHN renal) > 100 µM | GI50 (BT-549 breast) 33.8 µM | GI50 (CAKI-1 renal) 64.3 µM | GI50 (COLO 205 colon) 77.6 µM | GI50 (DU-145 prostate) 24 µM | GI50 (EKVX NSCLC) 23.4 µM | GI50 (HCC-2998 colon) 56 µM | GI50 (HCT-116 colon) > 66 µM | GI50 (HCT-15 colon) > 100 µM | GI50 (HL-60(TB) leukemia) 40.1 µM | GI50 (HOP-62 NSCLC) 29.4 µM | GI50 (HOP-92 NSCLC) > 100 µM | GI50 (HS 578T breast) > 54.7 µM | GI50 (HT29 colon) 65 µM | GI50 (IGROV1 ovarian) > 96.6 µM | GI50 (K-562 leukemia) 35.7 µM | GI50 (KM12 colon) > 82 µM | GI50 (LOX IMVI melanoma) 51.2 µM | GI50 (M14 melanoma) 49.4 µM | GI50 (MALME-3M melanoma) 41.5 µM | GI50 (MCF7 breast) 58 µM | GI50 (MDA-MB-231 breast) > 51 µM | GI50 (MDA-MB-435) 99.4 µM | GI50 (MOLT-4 leukemia) 43.1 µM | GI50 (NCI-H226 lung) 29.1 µM | GI50 (NCI-H23 lung) 39.1 µM | GI50 (NCI-H460 lung) > 78.7 µM | GI50 (NCI-H522 lung) 51.4 µM | GI50 (NCI/ADR-RES ovarian) 35.4 µM | GI50 (OVCAR-3 ovarian) 42.5 µM | GI50 (OVCAR-4 ovarian) 73.5 µM | GI50 (OVCAR-5 ovarian) > 100 µM | GI50 (OVCAR-8 ovarian) > 100 µM | GI50 (PC-3 prostate) > 66.7 µM | GI50 (RPMI-8226 leukemia) > 40.4 µM | GI50 (RXF 393 renal) > 100 µM | GI50 (SF-268 CNS) > 100 µM | GI50 (SF-295 CNS) 34.5 µM | GI50 (SF-539 CNS) 3.42 µM | GI50 (SK-MEL-2 melanoma) > 100 µM | GI50 (SK-MEL-28 melanoma) > 100 µM | GI50 (SK-MEL-5 melanoma) 16.1 µM | GI50 (SK-OV-3 ovarian) > 100 µM | GI50 (SN12C renal) 34.9 µM | GI50 (SNB-19 CNS) > 88.9 µM | GI50 (SNB-75 CNS) > 89.1 µM | GI50 (SR leukemia) 26.7 µM | GI50 (SW-620 colon) > 67.9 µM | GI50 (T-47D breast) > 69.2 µM | GI50 (TK-10 renal) > 66.2 µM | GI50 (U251 CNS) 42.5 µM | GI50 (UACC-257 melanoma) 76.1 µM | GI50 (UACC-62 melanoma) 29.6 µM | GI50 (UO-31 renal) > 100 µM
15.9 µM: TGI (CCRF-CEM leukemia)
96.8 µM: TGI (MDA-MB-231 breast)
> 76.9 µM: TGI (EKVX NSCLC)
> 61.4 µM: TGI (RPMI-8226 leukemia)
44.7 µM: TGI (SK-MEL-5 melanoma)
active: GI50 (CCRF-CEM leukemia) 179 nM
> 47.5 µM: TGI (SF-539 CNS)
> 100 µM: TGI (786-0 renal) | TGI (A549 NSCLC) | TGI (ACHN renal) | TGI (BT-549 breast) | TGI (CAKI-1 renal) | TGI (COLO 205 colon) | TGI (DU-145 prostate) | TGI (HCC-2998 colon) | TGI (HCT-116 colon) | TGI (HCT-15 colon) | TGI (HL-60(TB) leukemia) | TGI (HOP-62 NSCLC) | TGI (HOP-92 NSCLC) | TGI (HT29 colon) | TGI (IGROV1 ovarian) | TGI (K-562 leukemia) | TGI (KM12 colon) | TGI (LOX IMVI melanoma) | TGI (M14 melanoma) | TGI (MALME-3M melanoma) | TGI (MCF7 breast) | TGI (MDA-MB-435) | TGI (MOLT-4 leukemia) | TGI (NCI-H23 lung) | TGI (NCI-H460 lung) | TGI (NCI-H522 lung) | TGI (NCI/ADR-RES ovarian) | TGI (OVCAR-3 ovarian) | TGI (OVCAR-4 ovarian) | TGI (OVCAR-5 ovarian) | TGI (OVCAR-8 ovarian) | TGI (PC-3 prostate) | TGI (RXF 393 renal) | TGI (SF-268 CNS) | TGI (SF-295 CNS) | TGI (SK-MEL-2 melanoma) | TGI (SK-MEL-28 melanoma) | TGI (SK-OV-3 ovarian) | TGI (SN12C renal) | TGI (SNB-19 CNS) | TGI (SNB-75 CNS) | TGI (SR leukemia) | TGI (SW-620 colon) | TGI (T-47D breast) | TGI (TK-10 renal) | TGI (U251 CNS) | TGI (UACC-257 melanoma) | TGI (UACC-62 melanoma) | TGI (UO-31 renal)
43.3 µM: TGI (A498 renal)

CC(C)N(/C(F)=N\C(=O)Nc1ccccc1C(F)(F)F)C(C)C
64.2 µM: TGI (HOP-92 NSCLC)
> 100 µM: TGI (786-0 renal) | TGI (A549 NSCLC) | TGI (ACHN renal) | TGI (CAKI-1 renal) | TGI (CCRF-CEM leukemia) | TGI (COLO 205 colon) | TGI (EKVX NSCLC) | TGI (HCT-116 colon) | TGI (HCT-15 colon) | TGI (HL-60(TB) leukemia) | TGI (HOP-62 NSCLC) | TGI (HS 578T breast) | TGI (HT29 colon) | TGI (IGROV1 ovarian) | TGI (K-562 leukemia) | TGI (KM12 colon) | TGI (LOX IMVI melanoma) | TGI (M14 melanoma) | TGI (MALME-3M melanoma) | TGI (MCF7 breast) | TGI (MDA-MB-231 breast) | TGI (MDA-N) | TGI (NCI-H226 lung) | TGI (NCI-H23 lung) | TGI (NCI-H460 lung) | TGI (NCI/ADR-RES ovarian) | TGI (OVCAR-3 ovarian) | TGI (OVCAR-5 ovarian) | TGI (OVCAR-8 ovarian) | TGI (PC-3 prostate) | TGI (RPMI-8226 leukemia) | TGI (SF-268 CNS) | TGI (SF-295 CNS) | TGI (SF-539 CNS) | TGI (SK-MEL-28 melanoma) | TGI (SK-MEL-5 melanoma) | TGI (SK-OV-3 ovarian) | TGI (SN12C renal) | TGI (SNB-19 CNS) | TGI (SNB-75 CNS) | TGI (SR leukemia) | TGI (SW-620 colon) | TGI (TK-10 renal) | TGI (U251 CNS) | TGI (UACC-257 melanoma) | TGI (UO-31 renal)
99 µM: TGI (HCC-2998 colon)
78.5 µM: TGI (SK-MEL-2 melanoma)
